What all share (type): functional, cell-based
One test relates to V79. Briefly: Cytotoxicity against V-79 cells. The conditions noted are these: Cricetulus griseus.
A further test concerns KB. The test can be described thus: Compound was tested for its cytotoxicity against KB cells. The conditions noted are these: Homo sapiens.
A further test deals with P388. Briefly: Compound was tested for its cytotoxicity against P-388 cells. The conditions noted are these: Mus musculus.
The test system of the next test is MM46. Briefly: Compound was tested for its cytotoxicity against MM46 cells. The conditions noted are these: Mus musculus.

≈ marks a conversion by molar mass, not a printed value.

By IC50 is commonly meant the point on the concentration scale where inhibition reaches its midpoint. A low value points to greater potency.

The compound `COc1ccc2c(c1CCC(C)C)OC(=O)CC2` registered an IC50 in the test with V79 of over 100 µM.
For `COc1ccc2ccc(=O)oc2c1CCC(C)(C)O`, the IC50 in the test on V79 is over 100 µM.
In the test with V79, `CCCOc1ccc2ccc(=O)oc2c1CCC(C)C` gave a half-inhibitory concentration (IC50) of 5.6 µM.
As to `CC(C)CCc1c(O)ccc2c1OC(=O)CC2`, the IC50 in the test with V79 was over 100 µM.
In the test on V79, `CCCCOc1ccc2ccc(=O)oc2c1CCC(C)C` came in with an IC50 of 16 µM.
For the compound `COc1ccc2ccc(=O)oc2c1CC(O)C(C)(C)O` (configuration not stated), the IC50 in the test on V79 was over 100 µM.
As to `CC(C)CCc1c(O)ccc2ccc(=O)oc12`, the IC50 with V79 came to 40 µM.
Compound `COc1ccc2ccc(=O)oc2c1CC(Br)C(C)(C)Br` (configuration not stated) returned an IC50 with V79 of 60 µM.
The compound `CCCC(=O)c1ccc2ccc(=O)oc2c1CCC(C)C` displayed an IC50 in the test with V79 of 58 µM. This IC50 and that of the compound before are within 1.5-fold of each other.
In the case of `CC(C)CCc1cccc2ccc(=O)oc12`, in the test with V79, the IC50 stood at 60 µM.
On to `CC(=O)c1ccc2ccc(=O)oc2c1CCC(C)C`, for which half-maximal inhibition in the test with V79 (IC50) was put at 60 µM. In other words, the double-digit micromolar range.
In the test on V79, `COc1ccc2ccc(=O)oc2c1CC1OC1(C)C` (configuration not stated) registered an IC50 of over 100 µM.
`CCCCCCCOc1ccc2ccc(=O)oc2c1CCC(C)C`: the IC50 in the test on V79 is 17 µM.
Regarding `COc1ccc2ccc(=O)oc2c1CCC(C)C`, in the test on V79, the IC50 was determined as 58 µM. This IC50 lies about 3.4-fold higher than the previous one.
For `CCOc1ccc2ccc(=O)oc2c1CCC(C)C`, the IC50 in the test with V79 worked out at 5.8 µM.
Same read-out and setting: the result for `O=c1ccc2ccccc2o1` [COUMARIN] reads over 100 µM; that for `COc1ccc2ccc(=O)oc2c1` [HERNIARIN], over 100 µM.
Consider `COc1ccc2ccc(=O)oc2c1CC=C(C)C` [OSTHOLE], for which the IC50 in the test with KB was determined as 12 µg/mL (≈ 49.1 µM); with P388 it was 3.1 µg/mL (≈ 12.7 µM); in the test on MM46, 8.6 µg/mL (≈ 35.2 µM); in the test on V79, 57 µM.
For the compound `O=c1ccc2ccc(O)cc2o1` [UMBELLIFERONE], half-maximal inhibition in the test on V79 (IC50) was put at 58 µM.

The values above are taken from ChEMBL document CHEMBL1129131, “Identification and structure-activity relationship studies of osthol, a cytotoxic principle from Cnidium monnieri” (Bioorg Med Chem Lett, 1996).
